Measured values taken from PubChem BioAssay (NCI).
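1) Cells in 96-well plates. 2) Compound, 48 h, 5 concentrations. 3) Linear interpolation between surrounding doses. 4) Unreached endpoint = highest concentration. Abbreviation: GI50, concentration required for 50% inhibition of growth. TGI: total growth inhibition.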

What was measured:
Assay in all cases: DTP human tumour cell line panel, 48 h
786-0 renal = system: 786-0 renal
A498 renal = system: A498 renal
A549 NSCLC = system: A549 NSCLC
ACHN renal = system: ACHN renal
BT-549 breast = system: BT-549 breast
CCRF-CEM leukemia = system: CCRF-CEM leukemia
COLO 205 colon = system: COLO 205 colon
DU-145 prostate = system: DU-145 prostate
HCC-2998 colon = system: HCC-2998 colon
HCT-116 colon = system: HCT-116 colon
HCT-15 colon = system: HCT-15 colon
HL-60(TB) leukemia = system: HL-60(TB) leukemia
HOP-62 NSCLC = system: HOP-62 NSCLC
HOP-92 NSCLC = system: HOP-92 NSCLC
HS 578T breast = system: HS 578T breast
HT29 colon = system: HT29 colon
IGROV1 ovarian = system: IGROV1 ovarian
K-562 leukemia = system: K-562 leukemia
KM12 colon = system: KM12 colon
LOX IMVI melanoma = system: LOX IMVI melanoma
M14 melanoma = system: M14 melanoma
MALME-3M melanoma = system: MALME-3M melanoma
MCF7 breast = system: MCF7 breast
MDA-MB-231 breast = system: MDA-MB-231 breast
MDA-MB-435 = system: MDA-MB-435
MOLT-4 leukemia = system: MOLT-4 leukemia
NCI-H226 lung = system: NCI-H226 lung
NCI-H23 lung = system: NCI-H23 lung
NCI-H460 lung = system: NCI-H460 lung
NCI-H522 lung = system: NCI-H522 lung
NCI/ADR-RES ovarian = system: NCI/ADR-RES ovarian
OVCAR-3 ovarian = system: OVCAR-3 ovarian
OVCAR-4 ovarian = system: OVCAR-4 ovarian
OVCAR-5 ovarian = system: OVCAR-5 ovarian
OVCAR-8 ovarian = system: OVCAR-8 ovarian
PC-3 prostate = system: PC-3 prostate
RPMI-8226 leukemia = system: RPMI-8226 leukemia
RXF 393 renal = system: RXF 393 renal
SF-268 CNS = system: SF-268 CNS
SF-295 CNS = system: SF-295 CNS
SF-539 CNS = system: SF-539 CNS
SK-MEL-2 melanoma = system: SK-MEL-2 melanoma
SK-MEL-28 melanoma = system: SK-MEL-28 melanoma
SK-MEL-5 melanoma = system: SK-MEL-5 melanoma
SK-OV-3 ovarian = system: SK-OV-3 ovarian
SN12C renal = system: SN12C renal
SNB-19 CNS = system: SNB-19 CNS
SNB-75 CNS = system: SNB-75 CNS
SR leukemia = system: SR leukemia
SW-620 colon = system: SW-620 colon
T-47D breast = system: T-47D breast
TK-10 renal = system: TK-10 renal
U251 CNS = system: U251 CNS
UACC-62 melanoma = system: UACC-62 melanoma
UO-31 renal = system: UO-31 renal

Question: Which results are given for `O=C(Nc1ccc(OCc2nnc(-c3ccccc3)o2)c(F)c1)Nc1ccc(Cl)c(C(F)(F)F)c1`?
Answer: GI50 (786-0 renal): 2.11 µM; TGI (786-0 renal): 4.21 µM; GI50 (A498 renal): 1.61 µM; TGI (A498 renal): 4.25 µM; GI50 (A549 NSCLC): 1.91 µM; TGI (A549 NSCLC): 35.5 µM; GI50 (ACHN renal): 1.84 µM; TGI (ACHN renal): 4.42 µM; GI50 (BT-549 breast): 3.51 µM; TGI (BT-549 breast): 13.1 µM; GI50 (CCRF-CEM leukemia): 2.38 µM; TGI (CCRF-CEM leukemia): 10.6 µM; GI50 (COLO 205 colon): 2.11 µM; TGI (COLO 205 colon): 5.52 µM; GI50 (DU-145 prostate): 1.8 µM; TGI (DU-145 prostate): 3.53 µM; GI50 (HCC-2998 colon): 2.58 µM; TGI (HCC-2998 colon): 7.83 µM; GI50 (HCT-116 colon): 1.81 µM; TGI (HCT-116 colon): 6.37 µM; GI50 (HCT-15 colon): 2.28 µM; TGI (HCT-15 colon): 14.8 µM; GI50 (HL-60(TB) leukemia): 1.99 µM; TGI (HL-60(TB) leukemia): 4.61 µM; GI50 (HOP-62 NSCLC): 2.84 µM; TGI (HOP-62 NSCLC): 7.95 µM; GI50 (HOP-92 NSCLC): 1.78 µM; TGI (HOP-92 NSCLC): 5.17 µM; GI50 (HS 578T breast): 2 µM; TGI (HS 578T breast): 7.09 µM; GI50 (HT29 colon): 2.33 µM; TGI (HT29 colon): 9.9 µM; GI50 (IGROV1 ovarian): 2.12 µM; TGI (IGROV1 ovarian): 5.23 µM; GI50 (K-562 leukemia): 2.07 µM; TGI (K-562 leukemia): 8.79 µM; GI50 (KM12 colon): 1.47 µM; TGI (KM12 colon): 5.09 µM; GI50 (LOX IMVI melanoma): 2.83 µM; TGI (LOX IMVI melanoma): 12.9 µM; GI50 (M14 melanoma): 2.97 µM; TGI (M14 melanoma): 47 µM; GI50 (MALME-3M melanoma): 1.78 µM; TGI (MALME-3M melanoma): 4.98 µM; GI50 (MCF7 breast): 2.29 µM; TGI (MCF7 breast): 8.93 µM; GI50 (MDA-MB-231 breast): 2.3 µM; TGI (MDA-MB-231 breast): 6.03 µM; GI50 (MDA-MB-435): 2.71 µM; TGI (MDA-MB-435): > 100 µM; GI50 (MOLT-4 leukemia): 1.61 µM; TGI (MOLT-4 leukemia): 7.13 µM; GI50 (NCI-H226 lung): 3.65 µM; TGI (NCI-H226 lung): 28.3 µM; GI50 (NCI-H23 lung): 2.37 µM; TGI (NCI-H23 lung): 8.09 µM; GI50 (NCI-H460 lung): 1.52 µM; TGI (NCI-H460 lung): 3.7 µM; GI50 (NCI-H522 lung): 1.51 µM; TGI (NCI-H522 lung): 4.87 µM; GI50 (NCI/ADR-RES ovarian): 2.27 µM; TGI (NCI/ADR-RES ovarian): 7.65 µM; GI50 (OVCAR-3 ovarian): 2.06 µM; TGI (OVCAR-3 ovarian): 7.25 µM; GI50 (OVCAR-4 ovarian): 2.49 µM; TGI (OVCAR-4 ovarian): 8.52 µM; GI50 (OVCAR-5 ovarian): 7.56 µM; TGI (OVCAR-5 ovarian): > 100 µM; GI50 (OVCAR-8 ovarian): 2.57 µM; TGI (OVCAR-8 ovarian): 11.5 µM; GI50 (PC-3 prostate): 1.3 µM; TGI (PC-3 prostate): 4.85 µM; GI50 (RPMI-8226 leukemia): 1.11 µM; TGI (RPMI-8226 leukemia): 3.57 µM; GI50 (RXF 393 renal): 2.62 µM; TGI (RXF 393 renal): 8.98 µM; GI50 (SF-268 CNS): 3.52 µM; TGI (SF-268 CNS): 19.2 µM; GI50 (SF-295 CNS): 2.18 µM; TGI (SF-295 CNS): 6.83 µM; GI50 (SF-539 CNS): 2.41 µM; TGI (SF-539 CNS): 13 µM; GI50 (SK-MEL-2 melanoma): 2.64 µM; TGI (SK-MEL-2 melanoma): 7.12 µM; GI50 (SK-MEL-28 melanoma): 3.08 µM; TGI (SK-MEL-28 melanoma): > 100 µM; GI50 (SK-MEL-5 melanoma): 1.74 µM; TGI (SK-MEL-5 melanoma): 3.59 µM; GI50 (SK-OV-3 ovarian): 3.17 µM; TGI (SK-OV-3 ovarian): 9.46 µM; GI50 (SN12C renal): 1.91 µM; TGI (SN12C renal): 6.23 µM; GI50 (SNB-19 CNS): 2.35 µM; TGI (SNB-19 CNS): 16.7 µM; GI50 (SNB-75 CNS): 1.64 µM; TGI (SNB-75 CNS): 5.08 µM; GI50 (SR leukemia): 1.37 µM; TGI (SR leukemia): 4.31 µM; GI50 (SW-620 colon): 3.6 µM; TGI (SW-620 colon): 35.4 µM; GI50 (T-47D breast): 2.31 µM; TGI (T-47D breast): 7.15 µM; GI50 (TK-10 renal): 2.62 µM; TGI (TK-10 renal): 8.24 µM; GI50 (U251 CNS): 1.54 µM; TGI (U251 CNS): 4.68 µM; GI50 (UACC-62 melanoma): 2.48 µM; TGI (UACC-62 melanoma): 6.91 µM; GI50 (UO-31 renal): 1.49 µM; TGI (UO-31 renal): 2.93 µM
